Results from patent EP0319316A2, “Griseolic acid monoesters, their preparation and use” (SANKYO COMPANY LIMITED, priority 1987, dated 1989).

Key:
[1] = test system: water load-induced elevation of intraocular pressure; experiment: Effect on water load-induced elevation of intraocular pressure, water load test (Experiment 2); type: in vivo, male New Zealand white rabbits; conditions: 2.0% sample solution
Procedure: In the following Experiments 1 to 6, the test animals used were male New Zealand white rabbits, each weighing about 2.5 kg, raised in a room where the room temperature, relative humidity and lighting time were controlled to be 23° C, 60% and from 07:00 to 19:00, respectively. The animals were chosen from those where no abnormalities could be detected in their eyes by observation with the naked eye. They were given water freely but feed was restricted. The compound under test was dissolved in 100 mM of a sodium phosphate buffer solution (pH 7.2) containing a small amount of a 0.1 N aqueous solution of sodium hydroxide. In the case of timolol maleate, a 0.5% w/v eye lotion (Timoptol 0.5%, Santen Pharm. Co.) was used as such. Each rabbit was anesthetized with urethane (1.0 g/kg, i.v.), and the IOP values of both eyes were measured. Immediately thereafter, 50 µℓ of the sample solution was applied to one eye (test eye). To the other eye (control eye), 50 µℓ of the vehicle alone was applied. Ninety minutes after this application, the values of IOP were measured and then the water load test was performed as follows. Sixty ml/kg of tap water was given compulsorily per os to the anesthetized rabbit, and then the values of IOP for both eyes were measured with the passage of time. In this Experiment, the test compound was the compound of Example 19(b), i.e. 9'-(4-acetoxybenzyl) griseolate.

[2] = test system: Normal intraocular pressure; experiment: Normal intraocular pressure lowering effect (Experiment 3); type: in vivo, male New Zealand white rabbits; conditions: 2.0% sample solution, p < 0.05
Procedure: In the following Experiments 1 to 6, the test animals used were male New Zealand white rabbits, each weighing about 2.5 kg, raised in a room where the room temperature, relative humidity and lighting time were controlled to be 23° C, 60% and from 07:00 to 19:00, respectively. The animals were chosen from those where no abnormalities could be detected in their eyes by observation with the naked eye. They were given water freely but feed was restricted. The compound under test was dissolved in 100 mM of a sodium phosphate buffer solution (pH 7.2) containing a small amount of a 0.1 N aqueous solution of sodium hydroxide. In the case of timolol maleate, a 0.5% w/v eye lotion (Timoptol 0.5%, Santen Pharm. Co.) was used as such. The corneal surface was anesthetized by the application of oxybuprocain hydrochloride (Benoxil 0.4% solution, Santen Pharm. Co.), and the IOP was measured by means of an Alcon Applanation Pneumatograph (Japan Alcon) in rabbits. The measurements were carried out 2 or 3 times for each eye, and the mean value was calculated and is regarded as the value of IOP. After determination of the IOP, 25 µℓ of a sample solution was applied to one eye (test eye) three times every two minutes, and the same volume of the vehicle alone was applied to the other eye (control eye). The values of IOP of both eyes were measured with the passage of time. In this Experiment, the test compound was the compound of Example 19(b).

IOP = IOP lowering effect, area between IOP-time curves (Experiment 6); type: in vivo, male New Zealand white rabbits; conditions: Concentration 2.0 %; 25 µℓ three times every 2 minutes; ratio of areas between IOP lines
Procedure: In the following Experiments 1 to 6, the test animals used were male New Zealand white rabbits, each weighing about 2.5 kg, raised in a room where the room temperature, relative humidity and lighting time were controlled to be 23° C, 60% and from 07:00 to 19:00, respectively. The animals were chosen from those where no abnormalities could be detected in their eyes by observation with the naked eye. They were given water freely but feed was restricted.
The compound under test was dissolved in 100 mM of a sodium phosphate buffer solution (pH 7.2) containing a small amount of a 0.1 N aqueous solution of sodium hydroxide. In the case of timolol maleate, a 0.5% w/v eye lotion (Timoptol 0.5%, Santen Pharm. Co.) was used as such.
The cornea of the rabbit was anesthetized by the topical application of one or two drops of 0.4% oxybuprocaine hydrochloride. The IOP was measured two or three times for each eye and the mean value was calculated and is reported as the IOP value. After the IOP of the rabbit eye had been measured, 25 µℓ of the sample solution was applied to center of the cornea of one eye three times every 2 minutes. The other eye was treated with the vehicle alone in a similar way. The IOP of both eyes was then measured.
IOP values obtained from both eyes were plotted against times after application and the area enclosed by the two IOP lines (with and without the active compound) was calculated. The IOP lowering effect of each sample was expressed as a ratio of the area described above to that of 0.5^0/o timolol.

Male F344 rats [3] = experiment: Acute toxicity in the rat (Experiment 7); type: in vivo; conditions: single, observation one week
Procedure: Animals: Male F344 rats were used, each group consisting of 3 animals.
Drug preparation and administration: the compound of Example 19(b) was dissolved in distilled water and administered subcutaneously to the rats in a volume of 0.5 ml per 100 g of body weight. Observation of the rats was carried out over a period of one week.

Male F344 rats [4] = experiment: Four-day toxicity in the rat (Experiment 8); type: in vivo
Procedure: Animals: Male F344 rats were used, each group consisting of 5 animals.
Drug preparation and administration: the compound of Example 19(b) was dissolved in distilled water and administered subcutaneously to the rats in a volume of 0.4 ml per 100 g of body weight at 09:00 for 4 days. Twenty-four hours after the final dose the rats were anesthetized with diethyl ether and their blood and organs were collected, weighed and used for pathological examination.

Balb/3T3 cells = conditions: 10 min, 500 µM
Procedure: Balb/3T3 cells were incubated in Dulbecco's modified Eagle medium (glucose-rich) containing 100/o v/v bovine fetal serum. […] The sample was then dissolved in a buffer solution prepared by the further addition of 4 mM of calcium chloride to the buffer solution mentioned above. If the sample was difficult to dissolve in water, it was dissolved first in dimethyl sulphoxide (DMSO) and then the resulting solution was diluted with the buffer (the final concentration of DMSO was determined to be 0.1%). The cell suspension was preincubated at 30° C for 5 minutes, and 100 µℓ of this suspension were added to 100 µℓ of the sample solution to initiate enzymatic reaction. After incubation at 30° C for 10 minutes, 20 µℓ of 1 N aqueous hydrochloric acid was added to stop the reaction. The reaction mixture was then centrifuged at 3000 rpm for 3 minutes to obtain 100 µℓ of the supernatant. Cyclic 3',5'-adenosine monophosphate (cAMP) contained in the supernatant was quantitatively analyzed by radioimmunoassay using a Yamasa cAMP radioimmunoassay kit YSI-7701. The CAMP accumulating effect is reported as the ratio between the value measured using a test compound and that measured in the control.

[5] = parameters: species or system Male albino rabbits; conditions: rabbit, in vivo

SMILES: CC(=O)Oc1ccc(COC(=O)C23C=C(C(O)C(=O)O)OC2C(O)C(n2cnc4c(N)ncnc42)O3)cc1 (stereo not shown) [Example 19(b), 9'-(4-Acetoxybenzyl) griseolate]
- IOP of test eye ([1]; 50 µℓ, 90 minutes after application, before water loading, control eye 17.1 ± 1.1): 16.8 ± 1.0 mmHg
- IOP of test eye ([1]; 0.5 hours after water loading (60 ml/kg per os), control eye 28.7 ± 1.8, p < 0.05): 25.6 ± 2.2 mmHg
- IOP of test eye ([1]; 1.0 hours after water loading, control eye 26.3 ± 2.4, p < 0.05): 22.6 ± 2.3 mmHg
- IOP of test eye ([1]; 1.5 hours after water loading, control eye 20.3 ± 1.6, p < 0.05): 17.5 ± 1.2 mmHg
- IOP of test eye ([1]; 2.0 hours after water loading, control eye 17.4 ± 1.5): 17.1 ± 1.1 mmHg
- IOP of test eye ([1]; 2.5 hours after water loading, control eye 17.4 ± 1.9, p < 0.05): 15.6 ± 1.5 mmHg
- IOP of test eye ([2]; 25 µℓ three times every two minutes, one hour after application, control eye 20.7 ± 1.4): 19.5 ± 1.4 mmHg
- IOP of test eye ([2]; 2 hours after application, control eye 21.4): 19.3 ± 1.3 mmHg
- IOP of test eye ([2]; 5 hours after application, control eye 22.8 ± 0.5): 20.6 ± 0.7 mmHg
- IOP Lowering Effect (Ratio to 0.5% timolol) (IOP): 2.35
- death rate (Male F344 rats [3]; dose 25 mg/kg subcutaneously): 0/3
- death rate (Male F344 rats [3]; dose 50 mg/kg subcutaneously): 0/3
- death rate (Male F344 rats [3]; dose 100 mg/kg subcutaneously): 3/3
- death rate (Male F344 rats [4]; dose 6.25 mg/kg subcutaneously for 4 days): 0/5
- death rate (Male F344 rats [4]; dose 12.5 mg/kg subcutaneously for 4 days): 0/5
- death rate (Male F344 rats [4]; dose 25 mg/kg subcutaneously for 4 days): 0/5
- death rate (Male F344 rats [4]; dose 50 mg/kg subcutaneously for 4 days): 5/5
- cAMP accumulating effect (Balb/3T3 cells): 16
- IP [5]: 5.1 ± 0.5 mg/dL
